Experiments:
[1] = target: T1, Serine/threonine-protein kinase Sgk1 (Homo sapiens) (UniProt O00141); experiment: Inhibition of human SGK1 at 18.6 nM by HotSpot assay relative to control
T1 sequence (whole entry): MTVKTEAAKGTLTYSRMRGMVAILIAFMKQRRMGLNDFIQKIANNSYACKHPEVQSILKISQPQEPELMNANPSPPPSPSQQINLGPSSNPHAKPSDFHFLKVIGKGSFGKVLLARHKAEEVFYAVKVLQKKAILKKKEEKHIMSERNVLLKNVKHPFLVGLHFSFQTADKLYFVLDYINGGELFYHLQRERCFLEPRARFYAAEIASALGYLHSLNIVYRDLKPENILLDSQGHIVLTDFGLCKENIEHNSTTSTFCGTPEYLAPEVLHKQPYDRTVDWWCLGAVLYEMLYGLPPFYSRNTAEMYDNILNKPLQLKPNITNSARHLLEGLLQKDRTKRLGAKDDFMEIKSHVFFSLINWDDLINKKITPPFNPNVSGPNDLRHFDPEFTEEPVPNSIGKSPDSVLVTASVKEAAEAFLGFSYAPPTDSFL

[2] = target: Serine/threonine-protein kinase PLK2 (Homo sapiens) (UniProt Q9NYY3); experiment: Inhibition of human PLK2 at 18.6 nM by HotSpot assay relative to control
Serine/threonine-protein kinase PLK2 (Homo sapiens), sequence (Q9NYY3 whole entry, looked up): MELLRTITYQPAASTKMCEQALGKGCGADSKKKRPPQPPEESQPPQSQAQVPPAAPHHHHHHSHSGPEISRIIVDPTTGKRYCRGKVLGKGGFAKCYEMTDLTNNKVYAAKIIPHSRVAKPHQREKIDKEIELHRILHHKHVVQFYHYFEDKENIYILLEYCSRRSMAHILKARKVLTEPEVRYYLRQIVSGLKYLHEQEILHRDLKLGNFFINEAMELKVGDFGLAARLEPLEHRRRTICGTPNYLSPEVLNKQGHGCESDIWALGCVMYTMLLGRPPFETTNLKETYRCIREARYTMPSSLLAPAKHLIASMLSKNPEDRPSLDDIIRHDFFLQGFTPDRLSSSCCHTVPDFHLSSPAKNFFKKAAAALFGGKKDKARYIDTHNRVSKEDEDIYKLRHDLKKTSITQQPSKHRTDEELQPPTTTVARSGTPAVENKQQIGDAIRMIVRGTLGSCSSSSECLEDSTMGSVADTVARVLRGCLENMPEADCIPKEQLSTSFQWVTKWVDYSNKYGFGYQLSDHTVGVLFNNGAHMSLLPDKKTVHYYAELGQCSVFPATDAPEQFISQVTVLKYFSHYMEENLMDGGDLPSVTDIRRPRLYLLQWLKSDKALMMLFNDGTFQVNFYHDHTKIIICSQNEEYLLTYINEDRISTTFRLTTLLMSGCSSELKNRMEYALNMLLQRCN

[3] = target: Serine/threonine-protein kinase Chk2 (Homo sapiens) (UniProt O96017); experiment: Inhibition of human CHK2 at 18.6 nM by HotSpot assay relative to control
Serine/threonine-protein kinase Chk2 (Homo sapiens), sequence (O96017 whole entry): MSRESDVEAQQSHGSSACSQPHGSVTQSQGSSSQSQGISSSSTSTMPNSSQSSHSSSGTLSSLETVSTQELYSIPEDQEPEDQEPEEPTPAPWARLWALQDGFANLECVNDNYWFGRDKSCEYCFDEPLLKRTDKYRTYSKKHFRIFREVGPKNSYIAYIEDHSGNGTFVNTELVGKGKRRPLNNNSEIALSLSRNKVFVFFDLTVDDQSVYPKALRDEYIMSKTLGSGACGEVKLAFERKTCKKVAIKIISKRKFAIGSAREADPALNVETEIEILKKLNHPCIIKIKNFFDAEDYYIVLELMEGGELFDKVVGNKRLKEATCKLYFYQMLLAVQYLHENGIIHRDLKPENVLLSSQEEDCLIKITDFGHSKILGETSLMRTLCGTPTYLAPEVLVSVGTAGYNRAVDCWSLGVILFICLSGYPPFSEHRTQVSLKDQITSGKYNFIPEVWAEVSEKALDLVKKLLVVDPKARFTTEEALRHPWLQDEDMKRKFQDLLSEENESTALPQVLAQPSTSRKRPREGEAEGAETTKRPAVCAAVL

[4] = target: Ribosomal protein S6 kinase alpha-3 (Homo sapiens) (UniProt P51812); experiment: Inhibition of human RSK2 at 18.6 nM by HotSpot assay relative to control
Ribosomal protein S6 kinase alpha-3 (Homo sapiens), sequence (P51812 whole entry): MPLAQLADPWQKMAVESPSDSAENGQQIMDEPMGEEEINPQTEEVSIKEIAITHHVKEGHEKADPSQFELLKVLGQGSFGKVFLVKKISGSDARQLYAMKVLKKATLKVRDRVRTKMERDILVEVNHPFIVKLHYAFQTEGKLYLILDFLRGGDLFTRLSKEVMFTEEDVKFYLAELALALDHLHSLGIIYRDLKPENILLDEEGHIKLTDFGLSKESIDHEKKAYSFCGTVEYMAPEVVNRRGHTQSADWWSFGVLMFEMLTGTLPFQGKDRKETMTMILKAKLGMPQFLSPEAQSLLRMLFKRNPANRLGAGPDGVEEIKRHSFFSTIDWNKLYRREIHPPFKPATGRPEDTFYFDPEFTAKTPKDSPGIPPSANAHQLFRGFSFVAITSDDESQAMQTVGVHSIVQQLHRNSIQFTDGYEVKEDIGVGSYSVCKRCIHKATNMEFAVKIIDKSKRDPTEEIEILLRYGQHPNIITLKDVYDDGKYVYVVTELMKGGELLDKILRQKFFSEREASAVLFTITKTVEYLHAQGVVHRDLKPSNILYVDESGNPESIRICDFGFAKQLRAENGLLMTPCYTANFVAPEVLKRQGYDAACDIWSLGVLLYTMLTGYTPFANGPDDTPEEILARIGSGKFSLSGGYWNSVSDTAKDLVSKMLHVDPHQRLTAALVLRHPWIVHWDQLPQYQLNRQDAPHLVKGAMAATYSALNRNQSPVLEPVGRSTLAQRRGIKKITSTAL

[5] = target: CDK1/Cyclin A (Homo sapiens) (UniProt P06493+P20248); experiment: Inhibition of human CDK1/cyclin A at 1.82 nM by HotSpot assay relative to control; type: protein-complex assay
CDK1/Cyclin A (Homo sapiens), sequence (P06493 whole entry, looked up): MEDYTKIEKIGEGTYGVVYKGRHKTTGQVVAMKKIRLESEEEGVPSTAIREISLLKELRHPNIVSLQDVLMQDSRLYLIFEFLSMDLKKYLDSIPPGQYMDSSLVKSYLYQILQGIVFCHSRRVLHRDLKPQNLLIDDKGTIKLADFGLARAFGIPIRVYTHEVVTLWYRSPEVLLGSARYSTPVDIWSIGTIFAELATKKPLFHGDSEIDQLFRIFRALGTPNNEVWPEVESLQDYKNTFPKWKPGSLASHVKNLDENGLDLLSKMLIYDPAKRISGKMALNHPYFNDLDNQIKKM
CDK1/Cyclin A (Homo sapiens), sequence (P20248 whole entry, looked up): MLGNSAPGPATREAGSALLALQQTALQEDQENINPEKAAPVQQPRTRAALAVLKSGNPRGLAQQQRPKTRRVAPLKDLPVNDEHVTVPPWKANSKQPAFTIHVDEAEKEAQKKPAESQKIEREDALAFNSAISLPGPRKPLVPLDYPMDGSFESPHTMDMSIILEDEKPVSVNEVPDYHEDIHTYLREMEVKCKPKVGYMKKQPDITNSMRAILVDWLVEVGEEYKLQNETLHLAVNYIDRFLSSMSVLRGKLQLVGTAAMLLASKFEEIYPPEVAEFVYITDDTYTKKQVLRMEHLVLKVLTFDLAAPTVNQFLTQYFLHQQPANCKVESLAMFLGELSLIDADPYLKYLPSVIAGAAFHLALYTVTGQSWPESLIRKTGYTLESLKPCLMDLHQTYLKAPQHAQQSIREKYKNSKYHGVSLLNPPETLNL

[6] = target: Tyrosine-protein kinase Fes/Fps (Homo sapiens) (UniProt P07332); experiment: Inhibition of human FES at 1.82 nM by HotSpot assay relative to control
Tyrosine-protein kinase Fes/Fps (Homo sapiens), sequence (P07332 whole entry): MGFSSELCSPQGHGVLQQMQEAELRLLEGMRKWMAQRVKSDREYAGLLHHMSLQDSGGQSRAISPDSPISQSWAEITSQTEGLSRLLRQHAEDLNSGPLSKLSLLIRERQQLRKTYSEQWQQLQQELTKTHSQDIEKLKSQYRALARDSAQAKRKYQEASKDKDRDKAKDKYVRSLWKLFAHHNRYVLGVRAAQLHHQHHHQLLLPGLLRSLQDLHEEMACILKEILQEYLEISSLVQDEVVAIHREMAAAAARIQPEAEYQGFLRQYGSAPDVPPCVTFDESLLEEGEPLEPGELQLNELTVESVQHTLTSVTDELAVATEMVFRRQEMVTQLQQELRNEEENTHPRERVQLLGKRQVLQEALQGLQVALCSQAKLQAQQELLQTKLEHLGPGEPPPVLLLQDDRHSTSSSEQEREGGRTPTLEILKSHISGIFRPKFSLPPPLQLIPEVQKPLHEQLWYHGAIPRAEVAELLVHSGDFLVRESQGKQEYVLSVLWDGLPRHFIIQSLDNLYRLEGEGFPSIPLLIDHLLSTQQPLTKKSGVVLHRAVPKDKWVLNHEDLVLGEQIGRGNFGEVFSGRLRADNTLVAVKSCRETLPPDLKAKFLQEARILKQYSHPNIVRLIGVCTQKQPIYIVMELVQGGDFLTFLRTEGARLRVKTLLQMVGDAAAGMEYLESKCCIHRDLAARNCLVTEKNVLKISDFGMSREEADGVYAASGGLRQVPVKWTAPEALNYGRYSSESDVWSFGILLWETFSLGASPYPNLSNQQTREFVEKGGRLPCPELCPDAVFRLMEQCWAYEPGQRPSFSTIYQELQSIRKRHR

[7] = target: T2, Serine/threonine-protein kinase TBK1 (Homo sapiens) (UniProt Q9UHD2); experiment: Inhibition of human TBK1 at 1.82 nM by HotSpot assay relative to control
T2 sequence (whole entry): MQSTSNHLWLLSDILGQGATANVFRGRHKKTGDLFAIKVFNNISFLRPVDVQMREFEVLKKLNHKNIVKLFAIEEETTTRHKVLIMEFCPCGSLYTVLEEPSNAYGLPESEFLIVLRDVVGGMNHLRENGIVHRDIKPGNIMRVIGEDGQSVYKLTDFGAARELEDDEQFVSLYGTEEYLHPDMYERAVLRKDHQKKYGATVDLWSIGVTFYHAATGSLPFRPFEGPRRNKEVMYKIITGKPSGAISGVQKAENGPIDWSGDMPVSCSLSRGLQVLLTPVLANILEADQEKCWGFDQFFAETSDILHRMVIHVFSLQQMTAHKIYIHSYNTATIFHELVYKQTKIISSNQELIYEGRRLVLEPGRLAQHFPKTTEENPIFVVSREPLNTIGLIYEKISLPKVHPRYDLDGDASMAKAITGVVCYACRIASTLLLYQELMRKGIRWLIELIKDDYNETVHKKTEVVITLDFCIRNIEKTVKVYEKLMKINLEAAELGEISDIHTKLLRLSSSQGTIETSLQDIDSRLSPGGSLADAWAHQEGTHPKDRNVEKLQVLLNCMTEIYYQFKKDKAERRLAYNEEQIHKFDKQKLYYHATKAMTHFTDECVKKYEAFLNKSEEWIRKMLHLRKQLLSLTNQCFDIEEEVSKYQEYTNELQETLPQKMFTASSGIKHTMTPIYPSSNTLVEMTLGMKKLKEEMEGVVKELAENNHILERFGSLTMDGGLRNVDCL

[8] = target: T3, Ephrin type-A receptor 3 (Homo sapiens) (UniProt P29320); experiment: Inhibition of human EPHA3 at 1.82 nM by HotSpot assay relative to control
T3 sequence (whole entry): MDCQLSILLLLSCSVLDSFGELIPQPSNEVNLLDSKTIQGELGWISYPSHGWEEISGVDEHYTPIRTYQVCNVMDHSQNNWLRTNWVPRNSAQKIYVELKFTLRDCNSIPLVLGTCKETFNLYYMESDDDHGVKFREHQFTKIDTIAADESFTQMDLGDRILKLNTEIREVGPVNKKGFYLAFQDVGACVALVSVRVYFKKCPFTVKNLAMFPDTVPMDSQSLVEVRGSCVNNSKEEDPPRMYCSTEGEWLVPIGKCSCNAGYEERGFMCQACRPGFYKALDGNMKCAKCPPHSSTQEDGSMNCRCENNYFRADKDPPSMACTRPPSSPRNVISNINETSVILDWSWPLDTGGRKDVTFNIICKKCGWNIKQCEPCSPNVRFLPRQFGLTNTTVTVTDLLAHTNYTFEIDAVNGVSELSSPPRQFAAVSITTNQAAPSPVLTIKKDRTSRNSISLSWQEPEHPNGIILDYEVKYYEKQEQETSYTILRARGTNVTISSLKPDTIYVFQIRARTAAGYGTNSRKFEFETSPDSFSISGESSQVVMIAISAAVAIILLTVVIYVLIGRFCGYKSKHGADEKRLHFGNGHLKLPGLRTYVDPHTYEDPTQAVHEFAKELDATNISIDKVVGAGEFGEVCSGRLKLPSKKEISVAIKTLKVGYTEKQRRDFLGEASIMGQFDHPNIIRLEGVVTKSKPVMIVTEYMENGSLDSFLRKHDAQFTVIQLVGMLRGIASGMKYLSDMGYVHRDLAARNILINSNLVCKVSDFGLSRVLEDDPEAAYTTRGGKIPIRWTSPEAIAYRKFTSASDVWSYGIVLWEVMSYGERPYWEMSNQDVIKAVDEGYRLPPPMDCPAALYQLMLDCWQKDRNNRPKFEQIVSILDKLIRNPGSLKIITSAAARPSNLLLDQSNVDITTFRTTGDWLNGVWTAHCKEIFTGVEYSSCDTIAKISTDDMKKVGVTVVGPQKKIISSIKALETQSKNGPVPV

Compound | inhibition [1] [%] | inhibition [2] [%] | inhibition [3] [%] | inhibition [4] [%] | inhibition [5] [%] | inhibition [6] [%] | inhibition [7] [%] | inhibition [8] [%]
C[C@]1(O)C[C@@H](c2nc(-c3ccc4ccc(-c5ccccc5)nc4c3)c3c(N)nccn32)C1 | 3.48 | -0.58 | 0.83 | 1.82 | – | – | – | –
C[C@@]1(C(=O)Nc2ccc(F)nc2)CCCN1c1nc(Nc2cc(C3CC3)n[nH]2)c2cccn2n1 | – | – | – | – | -1.79 | 5.24 | 7.68 | 6.1

Reference: ChEMBL document CHEMBL5653615 (J Biol Chem, 2013)
